Test results: patent US6914045B2, “Glycopeptide antibiotics” (Wyeth Holdings Corporation, priority 2001, dated 2005)
Converted amounts (≈) assume the structure as drawn.

Key:
Test in all cases: in vitro antibacterial evaluation, MIC by broth dilution
Assay type in all cases: cell-based
Escherichia coli = conditions: broth dilution, 18 hours at 35° C.; for MIC Escherichia coli (ATCC 25922): strain ATCC 25922; for MIC Escherichia coli (GC 4559): strain GC 4559; for MIC Escherichia coli (GC 4560): strain GC 4560
Method in brief: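 MIC is the lowest antibiotic concentration (tested 64-0.06 μg/mL) preventing growth of a 5×10^5 CFU/mL inoculum. Determined by broth dilution in Mueller-Hinton II medium following NCCLS standard M7-A2.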

Enterococcus sp. = conditions: broth dilution, 18 hours at 35° C.; for MIC Enterococcus faecalis (ATCC 29212): strain ATCC 29212; for MIC Enterococcus faecalis (GC 2242): strain GC 2242; for MIC Enterococcus faecium (GC 2243): strain GC 2243; for MIC Enterococcus faecalis (GC 2691): strain GC 2691; for MIC Enterococcus faecalis (GC 3059): strain GC 3059; for MIC Enterococcus faecalis (GC 4552): strain GC 4552; for MIC Enterococcus faecalis (GC 4553): strain GC 4553; for MIC Enterococcus faecalis (GC 4554): strain GC 4554; for MIC Enterococcus faecium (GC 4556): strain GC 4556; for MIC Enterococcus faecium (GC 4557): strain GC 4557; for MIC Enterococcus avium (GC 4558): strain GC 4558; for MIC Enterococcus faecalis (GC 6189): strain GC 6189
Procedure: (§1) Methods for in vitro Antibacterial Evaluation (Table 1)
(§2) The minimum inhibitory concentration (MIC), the lowest concentration of the antibiotic which inhibits growth of the test organism, is determined by the broth dilution method using Muller-Hinton II […] (Baltimore Biological Laboratories) following the recommendations of the National Committee for Clinical Laboratory Standards [Methods for dilution antimicrobial susceptibility tests for bacteria that grow aerobically, approved standard M7-A2, National Committee for Clinical Laboratory Standards, Villanova, Pa.].
(§3) An inoculum level of 5×10^5 CFU/mL, and a range of antibiotic concentrations (64-0.06 μg/mL) is used. […] The test organisms include a spectrum of Gram-positive bacteria comprised of Staphylococcus sp., Streptococcus sp. and Enterococcus sp. These organisms include recent clinical isolates that are resistant to methicillin, penicillin and/or vancomycin.

Streptococcus sp. = conditions: broth dilution, 18 hours at 35° C.; for MIC Streptococcus pneumoniae (ATCC 6301): strain ATCC 6301; for MIC Streptococcus pneumoniae (GC 1894): strain GC 1894; for MIC Streptococcus pyogenes (GC 4563): strain GC 4563; for MIC Streptococcus agalactiae (GC 4564): strain GC 4564; for MIC Streptococcus pneumoniae (GC 4565): strain GC 4565
Procedure: as §1, §2, §3

Staphylococcus sp. = conditions: broth dilution, 18 hours at 35° C.; for MIC Staphylococcus aureus (ATCC 29213): strain ATCC 29213; for MIC Staphylococcus aureus (GC 1131): strain GC 1131; for MIC Staphylococcus aureus (GC 3051): strain GC 3051; for MIC Staphylococcus aureus (GC 3053): strain GC 3053; for MIC Staphylococcus aureus (GC 4541): strain GC 4541; for MIC Staphylococcus aureus (GC 4542): strain GC 4542; for MIC Staphylococcus aureus-SMITH (GC 4543): strain GC 4543; for MIC Staphylococcus aureus (GC 4544): strain GC 4544; for MIC Staphylococcus aureus (GC 4545): strain GC 4545; for MIC Staphylococcus haemolyticus (GC 4546): strain GC 4546; for MIC Coagulase Negative Staphylococcus (GC 4547): strain GC 4547; for MIC Coagulase Negative Staphylococcus (GC 4548): strain GC 4548; for MIC Coagulase Negative Staphylococcus (GC 4549): strain GC 4549; for MIC Coagulase Negative Staphylococcus (GC 4551): strain GC 4551; for MIC Coagulase Negative Staphylococcus (GC 6257): strain GC 6257
Procedure: as §1, §2, §3

CC(c1ccccc1)C1NC(=O)CNC(=O)C(CO)NC(=O)C(C(O)C2CNC(=N)N2C2OC(CO)C(O)C(O)C2O)NC(=O)C(C(O)C2CNC(=N)N2)NC(=O)C(Cc2ccc(O)c(NC(=O)c3ccccc3)c2)NC1=O (stereo not drawn) [Example 17, Cyclo[glycyl-β-methylphenylalanyl-3-(benzamido)tyrosyl-3-(2-iminoimidazolidin-4-yl)seryl-3-(3-hexopyranosyl-2-iminoimidazolidin-4-yl)serylseryl]]
MIC Escherichia coli (ATCC 25922) (Escherichia coli): 64 µg/mL (≈ 58.7 µM) | MIC Escherichia coli (GC 4559) (Escherichia coli): 32 µg/mL (≈ 29.4 µM) | MIC Escherichia coli (GC 4560) (Escherichia coli): 16 µg/mL (≈ 14.7 µM) | MIC Enterococcus faecalis (ATCC 29212) (Enterococcus sp.): >64 µg/mL | MIC Enterococcus faecalis (GC 2242) (Enterococcus sp.): >64 µg/mL | MIC Enterococcus faecium (GC 2243) (Enterococcus sp.): >64 µg/mL | MIC Enterococcus faecalis (GC 2691) (Enterococcus sp.): >64 µg/mL | MIC Enterococcus faecalis (GC 3059) (Enterococcus sp.): >64 µg/mL | MIC Enterococcus faecalis (GC 4552) (Enterococcus sp.): >64 µg/mL | MIC Enterococcus faecalis (GC 4553) (Enterococcus sp.): >64 µg/mL | MIC Enterococcus faecalis (GC 4554) (Enterococcus sp.): >64 µg/mL | MIC Enterococcus faecium (GC 4556) (Enterococcus sp.): 64 µg/mL (≈ 58.7 µM) | MIC Enterococcus faecium (GC 4557) (Enterococcus sp.): 64 µg/mL (≈ 58.7 µM) | MIC Enterococcus avium (GC 4558) (Enterococcus sp.): 64 µg/mL (≈ 58.7 µM) | MIC Enterococcus faecalis (GC 6189) (Enterococcus sp.): >64 µg/mL | MIC Streptococcus pneumoniae (ATCC 6301) (Streptococcus sp.): >64 µg/mL | MIC Streptococcus pneumoniae (GC 1894) (Streptococcus sp.): 64 µg/mL (≈ 58.7 µM) | MIC Streptococcus pyogenes (GC 4563) (Streptococcus sp.): >64 µg/mL | MIC Streptococcus agalactiae (GC 4564) (Streptococcus sp.): >64 µg/mL | MIC Streptococcus pneumoniae (GC 4565) (Streptococcus sp.): >64 µg/mL | MIC Staphylococcus aureus (ATCC 29213) (Staphylococcus sp.): >64 µg/mL | MIC Staphylococcus aureus (GC 1131) (Staphylococcus sp.): >64 µg/mL | MIC Staphylococcus aureus (GC 3051) (Staphylococcus sp.): >64 µg/mL | MIC Staphylococcus aureus (GC 3053) (Staphylococcus sp.): >64 µg/mL | MIC Staphylococcus aureus (GC 4541) (Staphylococcus sp.): >64 µg/mL | MIC Staphylococcus aureus (GC 4542) (Staphylococcus sp.): >64 µg/mL | MIC Staphylococcus aureus-SMITH (GC 4543) (Staphylococcus sp.): >64 µg/mL | MIC Staphylococcus aureus (GC 4544) (Staphylococcus sp.): >64 µg/mL | MIC Staphylococcus aureus (GC 4545) (Staphylococcus sp.): >64 µg/mL | MIC Staphylococcus haemolyticus (GC 4546) (Staphylococcus sp.): >64 µg/mL | MIC Coagulase Negative Staphylococcus (GC 4547) (Staphylococcus sp.): 64 µg/mL (≈ 58.7 µM) | MIC Coagulase Negative Staphylococcus (GC 4548) (Staphylococcus sp.): >64 µg/mL | MIC Coagulase Negative Staphylococcus (GC 4549) (Staphylococcus sp.): 32 µg/mL (≈ 29.4 µM) | MIC Coagulase Negative Staphylococcus (GC 4551) (Staphylococcus sp.): >64 µg/mL | MIC Coagulase Negative Staphylococcus (GC 6257) (Staphylococcus sp.): 64 µg/mL (≈ 58.7 µM)

CC(c1ccccc1)C1NC(=O)CNC(=O)C(CO)NC(=O)C(C(O)C2CNC(=N)N2C2OC(CO)C(O)C(O)C2O)NC(=O)C(C(O)C2CNC(=N)N2)NC(=O)C(Cc2ccc3oc(C=C(c4ccccc4)c4ccccc4)nc3c2)NC1=O (stereo not drawn) [Example 39, Cyclo[3-[2-(2,2-diphenylethenyl)-1,3-benzoxazol-5-yl]alanyl-3-(2-iminoimidazolidin-4-yl)seryl-3-(3-hexopyranosyl-2-iminoimidazolidin-4-yl)serylserylglycyl-β-methylphenylalanyl]]
MIC Escherichia coli (ATCC 25922) (Escherichia coli): 128 µg/mL (≈ 109 µM) | MIC Escherichia coli (GC 4559) (Escherichia coli): 128 µg/mL (≈ 109 µM) | MIC Escherichia coli (GC 4560) (Escherichia coli): 16 µg/mL (≈ 13.6 µM) | MIC Enterococcus faecalis (ATCC 29212) (Enterococcus sp.): 16 µg/mL (≈ 13.6 µM) | MIC Enterococcus faecalis (GC 2242) (Enterococcus sp.): 16 µg/mL (≈ 13.6 µM) | MIC Enterococcus faecium (GC 2243) (Enterococcus sp.): 8 µg/mL (≈ 6.81 µM) | MIC Enterococcus faecalis (GC 2691) (Enterococcus sp.): 16 µg/mL (≈ 13.6 µM) | MIC Enterococcus faecalis (GC 3059) (Enterococcus sp.): 16 µg/mL (≈ 13.6 µM) | MIC Enterococcus faecalis (GC 4552) (Enterococcus sp.): 16 µg/mL (≈ 13.6 µM) | MIC Enterococcus faecalis (GC 4553) (Enterococcus sp.): 8 µg/mL (≈ 6.81 µM) | MIC Enterococcus faecalis (GC 4554) (Enterococcus sp.): 32 µg/mL (≈ 27.3 µM) | MIC Enterococcus faecium (GC 4556) (Enterococcus sp.): 32 µg/mL (≈ 27.3 µM) | MIC Enterococcus faecium (GC 4557) (Enterococcus sp.): 8 µg/mL (≈ 6.81 µM) | MIC Enterococcus avium (GC 4558) (Enterococcus sp.): 8 µg/mL (≈ 6.81 µM) | MIC Enterococcus faecalis (GC 6189) (Enterococcus sp.): 16 µg/mL (≈ 13.6 µM) | MIC Streptococcus pneumoniae (ATCC 6301) (Streptococcus sp.): 8 µg/mL (≈ 6.81 µM) | MIC Streptococcus pneumoniae (GC 1894) (Streptococcus sp.): 8 µg/mL (≈ 6.81 µM) | MIC Streptococcus pyogenes (GC 4563) (Streptococcus sp.): 4 µg/mL (≈ 3.41 µM) | MIC Streptococcus agalactiae (GC 4564) (Streptococcus sp.): 16 µg/mL (≈ 13.6 µM) | MIC Streptococcus pneumoniae (GC 4565) (Streptococcus sp.): 16 µg/mL (≈ 13.6 µM) | MIC Staphylococcus aureus (ATCC 29213) (Staphylococcus sp.): 16 µg/mL (≈ 13.6 µM) | MIC Staphylococcus aureus (GC 1131) (Staphylococcus sp.): 16 µg/mL (≈ 13.6 µM) | MIC Staphylococcus aureus (GC 3051) (Staphylococcus sp.): 16 µg/mL (≈ 13.6 µM) | MIC Staphylococcus aureus (GC 3053) (Staphylococcus sp.): 8 µg/mL (≈ 6.81 µM) | MIC Staphylococcus aureus (GC 4541) (Staphylococcus sp.): 16 µg/mL (≈ 13.6 µM) | MIC Staphylococcus aureus (GC 4542) (Staphylococcus sp.): 16 µg/mL (≈ 13.6 µM) | MIC Staphylococcus aureus-SMITH (GC 4543) (Staphylococcus sp.): 16 µg/mL (≈ 13.6 µM) | MIC Staphylococcus aureus (GC 4544) (Staphylococcus sp.): 16 µg/mL (≈ 13.6 µM) | MIC Staphylococcus aureus (GC 4545) (Staphylococcus sp.): 16 µg/mL (≈ 13.6 µM) | MIC Staphylococcus haemolyticus (GC 4546) (Staphylococcus sp.): 8 µg/mL (≈ 6.81 µM) | MIC Coagulase Negative Staphylococcus (GC 4547) (Staphylococcus sp.): 8 µg/mL (≈ 6.81 µM) | MIC Coagulase Negative Staphylococcus (GC 4548) (Staphylococcus sp.): 8 µg/mL (≈ 6.81 µM) | MIC Coagulase Negative Staphylococcus (GC 4549) (Staphylococcus sp.): 4 µg/mL (≈ 3.41 µM) | MIC Coagulase Negative Staphylococcus (GC 4551) (Staphylococcus sp.): 8 µg/mL (≈ 6.81 µM) | MIC Coagulase Negative Staphylococcus (GC 6257) (Staphylococcus sp.): 4 µg/mL (≈ 3.41 µM)
